Test results from ChEMBL document CHEMBL4334494, “Recent advances in the targeting of human DNA ligase I as a potential new strategy for cancer treatment” (Eur J Med Chem, 2019).

Experiments:
MDA-MB-231 [1] = test: Antiproliferative activity against human MDA-MB-231 cells after 48 hrs by MTT assay; assay type: functional, cell-based; settings: MDA-MB-231, 48 h
HCT-116 = test: Antiproliferative activity against human HCT116 cells after 48 hrs by MTT assay; assay type: functional, cell-based; settings: HCT-116, 48 h
HT-29 = test: Antiproliferative activity against human HT-29 cells after 48 hrs by MTT assay; assay type: functional, cell-based; settings: HT-29, 48 h
DLD-1 = test: Antiproliferative activity against human DLD1 cells after 48 hrs by MTT assay; assay type: functional, cell-based; settings: DLD-1, 48 h
4T1 = test: Antiproliferative activity against mouse 4T1 cells after 48 hrs by MTT assay; assay type: functional, cell-based; settings: 4T1, 48 h
HepG2 = test: Antiproliferative activity against human HepG2 cells after 48 hrs by MTT assay; assay type: functional, cell-based; settings: HepG2, 48 h
HeLa = test: Antiproliferative activity against human HeLa cells after 48 hrs by MTT assay; assay type: functional, cell-based
DNA ligase 1 [2] = molecular target: T1, DNA ligase 1 (Homo sapiens, UniProt P18858); test: Inhibition of human DNA ligase 1 expressed in Escherichia coli BL21DE3RP cells at 50 uM using 52-mer DNA/25-mer DNA/27-mer DNA as substrate after 30 mins by Cyanin3 dye-based fluorescence assay relative to control
T1 sequence (P18858 whole entry): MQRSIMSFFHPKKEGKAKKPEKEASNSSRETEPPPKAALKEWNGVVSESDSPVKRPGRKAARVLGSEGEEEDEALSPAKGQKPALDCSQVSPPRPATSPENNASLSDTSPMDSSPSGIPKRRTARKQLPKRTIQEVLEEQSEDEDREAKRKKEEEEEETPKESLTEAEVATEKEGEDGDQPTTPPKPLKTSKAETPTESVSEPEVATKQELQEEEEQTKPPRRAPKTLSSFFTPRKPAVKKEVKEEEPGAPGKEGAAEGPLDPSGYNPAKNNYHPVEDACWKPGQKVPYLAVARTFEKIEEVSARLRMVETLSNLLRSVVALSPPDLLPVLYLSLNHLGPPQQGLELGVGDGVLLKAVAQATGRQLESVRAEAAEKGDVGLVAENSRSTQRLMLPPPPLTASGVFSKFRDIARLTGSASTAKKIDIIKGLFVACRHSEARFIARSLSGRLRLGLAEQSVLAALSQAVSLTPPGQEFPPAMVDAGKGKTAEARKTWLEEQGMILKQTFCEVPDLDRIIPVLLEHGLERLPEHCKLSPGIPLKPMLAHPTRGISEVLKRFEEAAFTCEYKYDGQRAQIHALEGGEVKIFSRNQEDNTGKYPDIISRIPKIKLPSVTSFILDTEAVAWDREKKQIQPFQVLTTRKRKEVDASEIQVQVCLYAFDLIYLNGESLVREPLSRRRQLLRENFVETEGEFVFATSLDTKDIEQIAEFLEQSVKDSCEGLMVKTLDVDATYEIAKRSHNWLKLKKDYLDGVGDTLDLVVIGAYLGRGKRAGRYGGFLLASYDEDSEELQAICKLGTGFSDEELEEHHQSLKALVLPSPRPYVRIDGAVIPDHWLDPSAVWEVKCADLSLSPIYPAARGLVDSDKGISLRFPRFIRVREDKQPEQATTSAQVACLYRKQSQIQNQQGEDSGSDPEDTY

DNA ligase 1 [3] = molecular target: T1, DNA ligase 1; test: Inhibition of human DNA ligase 1 using 52-mer DNA/25-mer DNA/27-mer DNA as substrate by fluorescence assay
DNA ligase 1 [4] = molecular target: T1, DNA ligase 1; test: Inhibition of human DNA ligase 1 expressed in Escherichia coli BL21 (DE3) cells using nicked DNA as substrate preincubated for 30 mins followed by substrate addition measured after 1 hr
DNA ligase 1 [5] = molecular target: T1, DNA ligase 1; test: Inhibition of human DNA ligase 1 at 50 uM using 52-mer DNA/25-mer DNA/27-mer DNA as substrate by fluorescence assay relative to control
MDA-MB-231 [6] = test: Antiproliferative activity against human MDA-MB-231 cells at 10 uM after 48 hrs by MTT assay relative to control; assay type: functional; settings: MDA-MB-231, 48 h
DNA ligase 1 [7] = molecular target: T1, DNA ligase 1; test: Inhibition of human DNA ligase 1 at 25 uM using nicked DNA as substrate after 30 mins relative to control

CCCCNC(=S)N1C/C(=C\c2ccccc2C)C(=O)/C(=C/c2ccccc2C)C1
IC50 (MDA-MB-231 [1]): < 10 µM
IC50 (HCT-116): < 10 µM
IC50 (HT-29): < 10 µM
IC50 (DLD-1): < 10 µM
IC50 (4T1): < 10 µM
IC50 (HepG2): < 10 µM
IC50 (HeLa): < 10 µM
inhibition (DNA ligase 1 [2]): > 75%

Cc1ccc(/C=C2\CN(C(=S)NC(=O)c3ccccc3)C/C(=C\c3ccc(C)cc3)C2=O)cc1
IC50 (MDA-MB-231 [1]): < 10 µM
IC50 (HCT-116): < 10 µM
IC50 (HT-29): < 10 µM
IC50 (DLD-1): < 10 µM
IC50 (4T1): < 10 µM
IC50 (HepG2): < 10 µM
IC50 (HeLa): < 10 µM
inhibition (DNA ligase 1 [2]): > 75%

COc1cc2c[n+](C)c3c4cc5c(cc4ccc3c2cc1OC)OCO5 [NITIDINE CHLORIDE]
IC50 (DNA ligase 1 [3]): 65.1 µM

O=C1/C(=N\Nc2cn[nH]c(=O)c2Cl)c2cc(Br)ccc2N1c1ccccc1
IC50 (DNA ligase 1 [4]): 36.4 µM

CC1(C)CC[C@]2(C(=O)O)CC[C@]3(C)C(=CC[C@@H]4[C@@]5(C)CC[C@H](O)C(C)(C)[C@@H]5CC[C@]43C)[C@@H]2C1 [OLEANOLIC_ACID]
IC50 (DNA ligase 1 [3]): 186 µM

O=C1/C(=N\Nc2cn[nH]c(=O)c2Cl)c2cc(Cl)ccc2N1c1ccc(Cl)cc1
IC50 (DNA ligase 1 [4]): 14.1 µM

C=C1C(=O)OC(CCCCCCCCCCCCC)C1C(=O)O (stereo not drawn) [(+/-)-Protolichesterinic acid]
IC50 (DNA ligase 1 [3]): 18.5 µM

COc1cc2c(ccc3c4cc(OC)c(OC)cc4c[n+](C)c23)cc1O [FAGARONINE]
IC50 (DNA ligase 1 [3]): 25.9 µM

C[C@H]1[C@H](C)CC[C@]2(C(=O)O)CC[C@]3(C)C(=CC[C@@H]4[C@@]5(C)CC[C@H](O)C(C)(C)[C@@H]5CC[C@]43C)[C@H]12 [URSOLIC ACID]
IC50 (DNA ligase 1 [3]): 263 µM

COc1cc([N+](=O)[O-])ccc1NC(=S)NCC12C=CC(O1)C1C(=O)N(c3ccc(C)cc3)C(=O)C12 (stereo not drawn)
inhibition (DNA ligase 1 [5]): 98.2%

CC1(C)CC[C@]2(C(=O)O)CC=C3[C@]4(C)CC[C@H]5C(C)(C)[C@@H](O)CC[C@]5(C)[C@H]4CC[C@@]3(C)[C@@H]2C1 [ALEURITOLIC ACID]
IC50 (DNA ligase 1 [3]): 208 µM

Cc1cc(NC(=O)CN2CCN(C(=O)OC(C)(C)C)CC2)c2cc(NC(=O)Nc3ccc(C)c(Cl)c3)ccc2n1
inhibition (DNA ligase 1 [5]): 61.1%

O=C1NC(=O)/C(=C/c2ccc(OCCCCCOc3cccc(C(=O)/C=C/c4ccc5c(c4)OCO5)c3)cc2)S1
inhibition (DNA ligase 1 [5]): 99.6%

C/C=C/C=C1\C=Cc2c(C(=O)OC)coc(=O)c21 [FULVOPLUMIERIN]
IC50 (DNA ligase 1 [3]): 356 µM

COc1cc(/C=C/c2cc(=O)oc3c2ccc2c(OC)cccc23)cc(OC)c1
inhibition at 10 µM (MDA-MB-231 [6]): > 50%
inhibition (DNA ligase 1 [7]): < 50%

O=C1/C(=C/c2ccc(F)cc2)CN(C(=S)NC(=O)c2ccccc2)C/C1=C\c1ccc(F)cc1
IC50 (MDA-MB-231 [1]): < 10 µM
IC50 (HCT-116): < 10 µM
IC50 (HT-29): < 10 µM
IC50 (DLD-1): < 10 µM
IC50 (4T1): < 10 µM
IC50 (HepG2): < 10 µM
IC50 (HeLa): < 10 µM
inhibition (DNA ligase 1 [2]): > 75%

CCOC(=O)N1CCN(CC(=O)Nc2cc(C)nc3ccc(NC(=O)Nc4ccc(Cl)cc4)cc23)CC1
inhibition (DNA ligase 1 [5]): 1.5%

CCCCNC(=S)N1C/C(=C\c2ccc(C)cc2)C(=O)/C(=C/c2ccc(C)cc2)C1
IC50 (MDA-MB-231 [1]): < 10 µM
IC50 (HCT-116): < 10 µM
IC50 (HT-29): < 10 µM
IC50 (DLD-1): < 10 µM
IC50 (4T1): < 10 µM
IC50 (HepG2): < 10 µM
IC50 (HeLa): < 10 µM
inhibition (DNA ligase 1 [2]): > 75%

O=c1c(O)c(-c2ccc(O)cc2O)oc2cc(O)cc(O)c12 [MORIN]
IC50 (DNA ligase 1 [3]): 225 µM
